Reference: patent publication US6756480B2, “Modulators of receptors for parathyroid hormone and parathyroid hormone-related protein” (Amgen Inc., priority 2000, dated 2004)

Columns and labels:
Sprague Dawley (SD) rats = assay: Anabolic assay: lumbar (L3) BMD by DEXA, PTH constructs with or without OPG-Fc; format: in vivo; conditions: 6-month-old male SD rats, DEXA Day 7; OPG-Fc 1 mg/kg once; PTH-(1-34) 20 nMoles/kg x3; PTH-(1-34)-Fc 60 nMoles/kg once
Description: Briefly, 6-month-old male Sprague Dawley (SD) rats were divided into groups of 6. Baseline bone mineral density (BMD) was determined in the third lumbar vertebra (L3) of all rats by dual-energy X-ray absorptiometry (DEXA) (Day 0). Rats were then treated according to the following schedule:
Group 1: Vehicle controls (PBS, injected SC, Days 1, 3, and 5)
Group 2: OPG-Fc, single SC injection (1 mg/kg) on Day 1
Group 3: PTH-(1-34), SC injections on Days 1, 3, and 5, at 20 nMoles PTH/kg/injection. This represents an optimal anabolic PTH regimen.
Group 4: Same as group 3, but with a single OPG-Fc injection on Day 1.
Group 5: Single SC injection of PTH-(1-34)-Fc at 60 nMoles/kg, on Day 1. This represents a molar dose which is equivalent to the total dose of PTH-(1-34) received by group 3, but in a single injection.
Group 6: Same as group 5, but with a single OPG-Fc injection (SC, 1 mg/kg) on Day 1.
DEXA of the lumbar spine was performed again on Day 7 to evaluate changes in BMD. […] The anabolic effect of a single treatment with PTH-(1-34)-Fc plus OPG-Fc was greater than that induced by multiple injections of PTH-(1-34), with or without OPG-Fc co-treatment.
Normal 6 month old male rats were treated with PTH-Fc or PTH or vehicle by a single SC injection. Some rats also received a single SC injection of OPG. BMD was determined 7 days later by DEXA. Data represent means+SD, N=6 rats/group.

male BDF1 mice = assay: Monotherapy in adult mice: twice-weekly PTH-(1-34)-Fc versus daily PTH-(1-34), tibial BMD by pQCT; format: in vivo
Description: Daily PTH [PTH-(1-34)] was given at 80 μg/kg/day (20 nmol/kg/day).
Briefly, male BDF1 mice (4 months of age) were treated twice per week by subcutaneous injection with various doses of PTH-(1-34)-Fc or with vehicle (PBS). Other mice were treated daily with SC injections of PTH-(1-34) at a dose of 80 μg/kg/day (20 nmol/kg/day), a treatment regimen which is optimal for increasing bone mass in rodents (M. Gunness-Hey and J. M. Hock, Metab. Bone Dis. & Rel. Res. 5:177-181, 1984). After 3 weeks, mice were sacrificed and tibiae were analyzed for bone mineral density (BMD) via pQCT (FIG. 10).

[1] = 3 weeks, PTH-(1-34) daily 80 μg/kg/day, PTH-(1-34)-Fc twice weekly, various doses
[2] = two highest doses, 50 and 150 nmol/kg twice weekly

Substance: PTH-(1-34)-Fc: human PTH-(1-34), SVSEIQLMHNLGKHLNSMERVEWLRKKLQDVHNF, linked at its C-terminus to an Fc domain
- BMD in L3 compared to PBS-treated rats (Sprague Dawley (SD) rats): failed to increase BMD
- cancellous BMD compared to vehicle (male BDF1 mice; [1]): dose-dependent increases
- total tibial BMD compared to vehicle (male BDF1 mice; [1]): dose-dependent increases
- cortical BMD in the tibia (male BDF1 mice; 3 weeks, PTH-(1-34) daily, PTH-(1-34)-Fc twice weekly, various doses): dose-dependent increase
- bone density and bone volume compared to daily PTH-(1-34) (male BDF1 mice; adult mice, twice weekly dosing): greater increases in bone density and bone volume
- cortical BMD versus vehicle or daily PTH-(1-34) (male BDF1 mice; highest dose twice weekly, p<0.05): significantly greater
- cancellous BMD versus vehicle or daily PTH-(1-34) (male BDF1 mice; [2]): significantly greater
- total BMD versus vehicle or daily PTH-(1-34) (male BDF1 mice; [2]): significantly greater
